The results in this text go back to patent US7858654B2, “Imidazole-substituted arylamides as P2X3 and P2X2/3 antagonists” (Roche Palo Alto LLC, priority 2007, dated 2010).

In test [1] the target is T1, human P2X2/3 receptor (Homo sapiens, UniProt P56373+Q9UBL9).
T1 construct: expressed in transfected cells; host or cells: CHO-K1
T1 sequence (Q9UBL9 1-471): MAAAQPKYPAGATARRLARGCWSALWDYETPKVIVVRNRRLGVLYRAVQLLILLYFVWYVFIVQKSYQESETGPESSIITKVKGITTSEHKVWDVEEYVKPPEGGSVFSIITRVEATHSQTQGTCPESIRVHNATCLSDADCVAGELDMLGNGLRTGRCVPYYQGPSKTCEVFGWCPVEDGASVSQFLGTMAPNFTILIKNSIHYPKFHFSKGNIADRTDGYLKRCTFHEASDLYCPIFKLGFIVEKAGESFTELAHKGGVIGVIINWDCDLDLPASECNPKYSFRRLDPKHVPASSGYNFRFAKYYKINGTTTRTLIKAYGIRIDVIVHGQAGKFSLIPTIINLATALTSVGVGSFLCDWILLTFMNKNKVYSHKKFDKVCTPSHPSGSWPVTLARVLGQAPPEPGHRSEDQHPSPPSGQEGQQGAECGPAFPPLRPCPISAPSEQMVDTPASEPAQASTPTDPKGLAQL
T1 sequence (P56373 1-397): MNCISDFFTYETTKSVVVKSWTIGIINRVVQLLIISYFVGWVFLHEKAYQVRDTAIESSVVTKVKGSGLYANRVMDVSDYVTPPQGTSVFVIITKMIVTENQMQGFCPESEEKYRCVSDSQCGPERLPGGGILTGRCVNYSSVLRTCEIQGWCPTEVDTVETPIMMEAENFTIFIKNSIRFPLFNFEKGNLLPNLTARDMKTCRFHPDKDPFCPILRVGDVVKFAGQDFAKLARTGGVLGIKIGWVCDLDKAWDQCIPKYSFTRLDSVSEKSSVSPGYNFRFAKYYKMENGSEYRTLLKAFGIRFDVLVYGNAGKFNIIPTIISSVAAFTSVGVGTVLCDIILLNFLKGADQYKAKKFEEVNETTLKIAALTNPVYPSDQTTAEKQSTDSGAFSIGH
In words: P2X2/3 FLIPR (Fluorometric Imaging Plate Reader) assay. The format is cell-based. As to conditions: transfected CHO-K1 cells; agonist α,β-meATP 5 μM; Fluo-3 calcium fluorescence; read-out: pKi for the P2X2/3 receptor (converted). The protocol: (§1) CHO-K1 cells were transfected with cloned rat P2X3 or human P2X2/3 receptor subunits and passaged in flasks. 18-24 hours before the FLIPR experiment, cells were released from their flasks, centrifuged, and resuspended in nutrient medium at 2.5×10^5 cells/ml. The cells were aliquoted into black-walled 96-well plates at a density of 50,000 cells/well and incubated overnight in 5% CO2 at 37° C. On the day of the experiment, cells were washed in FLIPR buffer (calcium- and magnesium-free Hank's balanced salt solution, 10 mM HEPES, 2 mM CaCl2, 2.5 mM probenecid; FB). Each well received 100 μl FB and 100 μl of the fluorescent dye Fluo-3 AM [2 μM final conc.]. […]
(§2) Test compounds (dissolved in DMSO at 10 mM and serially diluted with FB) or vehicle were added to each well (25 μl of a 4× solution) and allowed to equilibrate for 20 minutes at room temperature. The plates were then placed in the FLIPR and a baseline fluorescence measurement (excitation at 488 nm and emission at 510-570 nm) was obtained for 10 seconds before a 100 μl/well agonist or vehicle addition. […] Fluorescence was measured for an additional 2 minutes at 1 second intervals after agonist addition. A final addition of ionomycin (5 μM, final concentration) was made to each well of the FLIPR test plate to establish cell viability and maximum fluorescence of dye-bound cytosolic calcium. […]

In test [2] the target is T2, rat P2X3 receptor (Rattus norvegicus, UniProt P49654).
T2 construct: expressed in transfected cells; host or cells: CHO-K1
T2 sequence (P49654 1-397): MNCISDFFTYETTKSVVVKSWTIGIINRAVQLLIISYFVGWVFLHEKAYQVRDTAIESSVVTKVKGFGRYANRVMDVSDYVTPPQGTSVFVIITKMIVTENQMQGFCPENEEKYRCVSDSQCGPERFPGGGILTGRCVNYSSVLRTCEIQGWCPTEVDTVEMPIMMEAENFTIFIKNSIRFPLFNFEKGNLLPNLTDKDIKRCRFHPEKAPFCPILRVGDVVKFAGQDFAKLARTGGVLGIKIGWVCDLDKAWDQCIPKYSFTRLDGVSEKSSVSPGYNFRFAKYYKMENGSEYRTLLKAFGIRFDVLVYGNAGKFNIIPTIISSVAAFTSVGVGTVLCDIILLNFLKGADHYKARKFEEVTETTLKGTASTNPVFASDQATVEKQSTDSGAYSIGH
As to the kind of experiment: P2X3 FLIPR (Fluorometric Imaging Plate Reader) assay. Type of test: cell-based. As to conditions: transfected CHO-K1 cells; agonist α,β-meATP 1 μM; Fluo-3 calcium fluorescence; read-out: pIC50 for the P2X3 receptor (converted). The protocol: as §1, §2

For `Cc1ccc(-c2cc(C(=O)NC(C)c3cnccn3)cc(-n3ccnc3C(C)C)c2)cc1` (centres unmarked) [Compound 27, 5-(2-Isopropyl-imidazol-1-yl)-4′-methyl-biphenyl-3-carboxylic acid (1-pyrazin-2-yl-ethyl)-amide], the Ki in test [1] was about 0.0468 µM.
As for `CCc1nccn1-c1cc(C(=O)NCc2cnc(C)cn2)cc(-c2ccc(C)cn2)c1` [Compound 29, 3-(2-Ethyl-imidazol-1-yl)-N-(5-methyl-pyrazrn-2-ylmethyl)-5-(5-methyl-pyridin-2-yl)-benzamide], the IC50 in test [2] is about 0.00282 µM.
